The results in this text go back to US9970037B2, “Methods and materials for making simvastatin and related compounds” (The Regents of the University of California, priority 2006, dated 2018).

Data set [1] concerns the target T1, BioH (Escherichia coli, UniProt P13001).
T1 construct: The bioH gene was amplified from E. coli genomic DNA by PCR with flanking restriction sites NdeI and EcoRI; 6xHis (N); made in house; host or cells: E. coli BL21(DE3)/pXK8 (pET28a)
T1 sequence (P13001 1-256): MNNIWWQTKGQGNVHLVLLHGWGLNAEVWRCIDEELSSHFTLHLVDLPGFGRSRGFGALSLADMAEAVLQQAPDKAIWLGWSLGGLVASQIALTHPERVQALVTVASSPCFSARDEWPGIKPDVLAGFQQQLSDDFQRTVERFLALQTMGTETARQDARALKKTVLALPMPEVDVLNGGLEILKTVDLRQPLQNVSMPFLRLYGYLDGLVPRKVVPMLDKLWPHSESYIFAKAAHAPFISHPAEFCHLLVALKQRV
The data set can be described thus: BioH enzymatic hydrolysis assay of dimethylbutyryl thioesters, HPLC 234 nm. The data set is classed as biochemical. The conditions noted are these: 1 mM substrate, 10 nM BioH. The method, then:
(§1) The hydrolysis assays were performed at room temperature in 50 mM HEPES, pH 7.9. The thioester substrate DMB-S-MMP was added to final concentration between 0.1 mM and 1.0 mM. To facilitate solubilization of DMB-S-MMP, DMSO was added to a final concentration of 10% for all the samples. The reaction was initiated with the addition of BioH (0.01 μM) and quenched at desired time points (10, 20, 30 minutes) by adding equal volume of EA/1% AcOH. The organic phase was separated, dried and redissolved in 20 μL of ACN and analyzed with HPLC. The conversions of DMB-S-MMP to DMB-S-MPA were quantified by integration of the peaks at 234 nm. Comparison of the BioH catalytic efficiency towards the three dimethylbutyryl thioesters were performed at 1 mM substrate concentration and 10 nM BioH concentration.

Data set [2] concerns the target T2, LovD (Aspergillus terreus, UniProt Q9Y7D1).
T2 sequence (Q9Y7D1 1-413): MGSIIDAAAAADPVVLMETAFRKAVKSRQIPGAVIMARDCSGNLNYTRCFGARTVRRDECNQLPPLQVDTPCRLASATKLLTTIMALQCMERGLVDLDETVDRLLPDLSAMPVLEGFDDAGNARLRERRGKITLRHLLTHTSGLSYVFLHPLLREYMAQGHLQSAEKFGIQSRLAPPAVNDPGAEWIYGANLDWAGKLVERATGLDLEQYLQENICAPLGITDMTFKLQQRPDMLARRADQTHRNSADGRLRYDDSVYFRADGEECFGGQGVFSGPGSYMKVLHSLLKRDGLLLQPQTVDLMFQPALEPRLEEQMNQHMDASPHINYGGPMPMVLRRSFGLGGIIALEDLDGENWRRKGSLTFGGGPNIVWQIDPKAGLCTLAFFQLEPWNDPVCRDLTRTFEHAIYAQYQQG
The data set can be described thus: LovD transacylation assay: acyl transfer from acyl thioester to C8 hydroxyl of monacolin J, HPLC. The data set is classed as biochemical. To be noted: for Initial Velocity (ki): 1 mM MJ, 4 mM thioester substrate, 10 uM pure LovD, rate of initial turnover in the linear range; for Initial Velocity (ki) / apparent kcat (initial turnover rate in the linear range) of monacolin J acylation: 50 mM HEPES, pH 7.9; for apparent kcat (initial turnover rate in the linear range) of monacolin J acylation: 10 μM LovD, 4 mM acyl donor; for apparent kcat (initial turnover rate in the linear range) of monacolin J acylation / substrate competence for LovD: 1 mM monacolin J; for substrate competence for LovD: 4 mM acyl-CoA, 10 uM LovD, 10 hours. Also noted: 6xHis (N); made in house; host or cells: E. coli BL21(DE3)/pAW31 (pET28a). The procedure: We first examined if an acyl-CoA can be used as substrate for the transacylation reaction. The uninterrupted gene of LovD was amplified from A. terreus genomic DNA using splice by overlap extension PCR and was inserted into the pET28a expression vector. Overexpression of soluble, N-terminal 6×His fusion LovD was performed in E. coli strain BL21(DE3)/pAW31. LovD was purified using Nickel-NTA affinity column to homogeneity (final yield˜40 mg/L). The substrate monacolin J (1 mM) was prepared through the LiOH hydrolysis of lovastatin and was added to a reaction mixture containing pure LovD (10 μM) and butyryl-CoA (4 mM), which is a commercially available acyl-CoA that best mimics the natural α-methylbutyrate side chain. The reaction mixture was incubated at room temperature, extracted with ethyl acetate and analyzed by HPLC and LC-MS (FIG. 5).
We assayed the tolerance of LovD towards different acyl substituents by performing the transacylation assay with various commercially available acyl-CoAs (Table 1A). All assays were perform with 1 mM monacolin J, 4 mM acyl-CoA and 10 uM LovD for 10 hours.
Expression and purification of LovD has been previously described in detail (see, e.g., Xie et al., 2006, Chem Biol 13: 1161-1169). The assays were performed at room temperature in 50 mM HEPES, pH 7.9. The initial velocities (ki) of the acyl substrates were determined with 10 μM LovD, 1 mM monacolin J and 4 mM of the thioester. The reaction mixture at different time points was quenched by trifluoroacetic acid (TFA), extracted with ethyl acetate, evaporated to dryness and redissolved in acetonitrile. The percent conversion of monacolin J to simvastatin was determined by HPLC analysis (C18). The linear range of the turnover rate is reported as ki in Table 1B. To determine the Km of DMB-S-MMP, the concentration of monacolin J is fixed at 2 mM, while the concentration of DMB-S-MMP was varied from 0.2 mM to 10 mM. DMSO is added to a final concentration of 5% to facilitate solubilization of DMB-S-MMP. To obtain Km of monacolin J, DMB-S-MMP concentration is fixed at 2 mM, while the concentration of monacolin J is varied from 0.2 mM to 5 mM.

Data set [3] concerns E. coli BL21(DE3)/pAW31. The data set can be described thus: Whole cell biocatalysis with E. coli overexpressing LovD. The format is cell-based, Escherichia coli. To be noted: 4 mM acyl donor. The procedure: The BL21(DE3)/pAW31 overexpression strain was grown in a shake flask (200 mL) to an OD600 of 1.0, at which time 1 mM IPTG, 0.8 mM monacolin J and 4 mM of either benzoyl-SNAC or benzoyl-SMTG were added to the culture. Expression of LovD and bioconversion was performed at 18° C. The culture was extracted and analyzed for the formation of 8-benzoyl-monacolin J. When supplemented with benzoyl-SNAC, 84% conversion of monacolin J was detected within 20 hours post-induction. The product was lactonized and purified by a single silica-gel chromatography step. The NMR spectra confirmed the regioselective benzoylation of the C8 hydroxyl group as the diagnostic H8 multiplet is shifted downfield to δ 5.61.
Fermentation conditions: 500 mL culture with LB media with 30 mg/L kanamycin. At OD600 of 1.0, cells were concentrated to a final OD600 of 5.0 and induced with 1 mM IPTG. Substrates monacolin J and α-dimethylbutyryl-SNAC were added to a final concentration of 1 mM and 4 mM. At different time points, culture samples were collected, centrifuged, filtered and injected on to HPLC (20 μL). Extraction conditions: When maximum conversion was reached, the broth was acidified to pH of 2.0, extracted with ethyl acetate, dried and redissolved in toluene.
Whole-cell catalytic synthesis of simvastatin acid from MJ acid and DMB-S-MMP were performed as described (see, e.g., Xie et al., (2007) Appl Environ Microbiol 73: 2054-2060). The E. coli BL21(DE3)/pAW31 and YT2/pAW31 strains were cultured side-by-side for comparison. A single colony of the freshly transformed strains was used to inoculate a 5 mL LB culture supplemented with 35 mg/L kanamycin and grown overnight at 37° C. The next morning, 100 μL of the overnight culture was inoculated into 50 mL cultures containing LB broth, F1 minimal medium and F1 medium supplemented with 0.15 mg/L biotin. Growth rates were monitored by periodically measuring the OD600 reading. When OD600 reached ˜0.5, 100 μM IPTG was added to the culture and expression of LovD was performed at 20° C. for 16 hours. To mimic high density fermentation conditions, the cells were concentrated 10-fold before addition of substrates. Typically, a 14 mL aliquot of the culture was transferred to a 15 mL centrifuge tube and the cells were collected by centrifugation (4° C., 4000 g, 10 minutes). The cell pellet was gently resuspended in 1316 μl of the supernatant, followed by addition of 84 μl of a MJ acid stock solution (250 mM in H2O) (final concentration 15 mM). The concentrated culture was then separated into seven 200 μL samples and 1.2 μL of pure DMB-S-MMP was added to each sample (final concentration ˜25 mM). The culture was then shaken at 300 rpm at room temperature. At each time point, a total extraction was performed by adding 10 μL 20% SDS to lyse the cells, followed by liquid-liquid extraction with 500 μL EA/1% AcOH. The organic phase was removed, evaporated, and redissolved in 50 μL ACN for HPLC analysis. For the BL21(DE3) sample, an additional 1.2 μL aliquot of DMB-S-MMP was added after 12 hours to replenish the hydrolyzed substrates.
The E. coli BL21(DE3)/pAW31 strain was grown in LB medium at 37° C. to an OD600 of 0.5, at which time 100 μM IPTG was added to the culture and expression was performed at RT for 16 hours. A 10 ml culture was transferred to a 15 mL centrifuge tube. The cells were collected by centrifugation (4000 g, 10 minutes). The cell pellet was resuspended in 957 μl of the supernatant. The pH was adjusted to pH 7.9 with 1.0 N NaOH, followed by addition of 33 μl 450 mM MJ (final concentration 15 mM) and 6 μl pure DMB-S-MMP (final concentration ˜25 mM). The culture was then shaken at 300 rpm at room temperature. At each time point, a 4 μL aliquot was removed from the reaction mixture, quenched in 300 μL ethyl acetate containing 1% TFA.

Substrate in data set [4]: CCC(C)(C)C(=O)SCCC(=O)OC
Put plainly: BioH enzymatic hydrolysis assay of dimethylbutyryl thioesters, HPLC 234 nm. The data set is classed as biochemical, Escherichia coli. To be noted: other: 50 mM HEPES, pH 7.9, 10% DMSO, 0.01 μM BioH. The method, then:
as §1

With `CCOC(=O)CCSC(=O)C(C)(C)CC` [DMB-S-EMP, dimethylbutyryl-S-ethyl mercaptopropionate], the “rate of substrate hydrolysis by BioH relative to DMB-S-MMP” value in data set [1] is “significantly attenuated”. In addition, the “Initial Velocity (ki)” value in data set [2] came to 0.70 min⁻¹.

Turning to `CCC(C)(C)C(=O)SCC(=O)OC` [DMB-S-MTG, dimethylbutyryl-S-methyl thioglycolate], the “decrease in the rate of hydrolysis by BioH relative to DMB-S-MMP” value in data set [1] was 2.5 fold. The “Initial Velocity (ki)” value in data set [2] worked out at 0.03 min⁻¹.

With `CC[C@H](C)C(=O)SCCNC(C)=O` [α-S-methylbutyryl-SNAC], the “apparent kcat (initial turnover rate in the linear range) of monacolin J acylation” value (from here on “apparent kcat”) in data set [2] was approximately 0.00067 s⁻¹.

For the molecule `CCCCCCCCCCCCCCCC(=O)SCCNC(=O)CCNC(=O)[C@H](O)C(C)(C)COP(=O)(O)OP(=O)(O)OC[C@H]1O[C@@H](n2cnc3c(N)ncnc32)[C@H](O)[C@@H]1OP(=O)(O)O` [palmitoyl-CoA, reference compound], the “substrate competence for LovD” value in data set [2] is “inactive”.

For `CC(O)CC(=O)SCCNC(=O)CCNC(=O)[C@H](O)C(C)(C)COP(=O)(O)OP(=O)(O)OC[C@H]1O[C@@H](n2cnc3c(N)ncnc32)[C@H](O)[C@@H]1OP(=O)(O)O` (stereo partly drawn) [β-hydroxylbutyryl-CoA, reference compound], the “substrate competence for LovD” value in data set [2] is given as “excellent substrates”.

On to `CC(C)(COP(=O)(O)OP(=O)(O)OC[C@H]1O[C@@H](n2cnc3c(N)ncnc32)[C@H](O)[C@@H]1OP(=O)(O)O)[C@@H](O)C(=O)NCCC(=O)NCCSC(=O)CC(=O)O` [malonyl-CoA, reference compound], for which, in data set [2], the “substrate competence for LovD” value is “inactive”.

As for `CC(=O)CC(=O)SCCNC(=O)CCNC(=O)[C@H](O)C(C)(C)COP(=O)(O)OP(=O)(O)OC[C@H]1O[C@@H](n2cnc3c(N)ncnc32)[C@H](O)[C@@H]1OP(=O)(O)O` [Acetoacetyl-CoA, reference compound], the “substrate competence for LovD” value in data set [2] is on record as “excellent substrates”.

Broadly, the Km is the substrate concentration at which the rate is half of its maximum. With `C[C@H]1C=C2C=C[C@H](C)[C@H](CC[C@@H]3C[C@@H](O)CC(=O)O3)[C@H]2[C@@H](O)C1` [monacolin J], the Km in data set [2] (DMB-S-MMP fixed at 2 mM, monacolin J 0.2-5 mM) was 780 ± 120 µM.

Turning to `CCC(C)(C)C(=O)SCCCC(=O)OC` [DMB-S-MMB, dimethylbutyryl-S-methyl mercaptobutyrate], the “Initial Velocity (ki)” value in data set [2] amounted to 0.78 min⁻¹.

Turning to `CC(=O)NCCSC(=O)c1ccccc1` [benzoyl-SNAC], the “conversion of monacolin J (benzoylation) in vivo” value in data set [3] (0.8 mM monacolin J, 18° C., within 20 hours post-induction) is recorded as 84%. In addition, the “apparent kcat” value in data set [2] is 0.002 s⁻¹.

Consider `CCC(C)(C)C(=O)SCCNC(C)=O` [DMB-S-NAC, α-dimethylbutyryl-S-N-acetylcysteamine], for which the “conversion of monacolin J to simvastatin, low cell-density fermentation” value in data set [3] (1 mM monacolin J, after two days of culturing) is recorded as approximately 90%. Besides, the “Initial Velocity (ki)” value in data set [2] was determined as 0.02 min⁻¹.

With `CCCC(=O)SCCNC(C)=O` [butyryl-SNAC], the “apparent kcat” value in data set [2] worked out at 0.0015 s⁻¹.

B1: BioH (Escherichia coli K-12) (protein)
chain: MNNIWWQTKGQGNVHLVLLHGWGLNAEVWRCIDEELSSHFTLHLVDLPGFGRSRGFGALSLADMAEAVLQQAPDKAIWLGWSLGGLVASQIALTHPERVQALVTVASSPCFSARDEWPGIKPDVLAGFQQQLSDDFQRTVERFLALQTMGTETARQDARALKKTVLALPMPEVDVLNGGLEILKTVDLRQPLQNVSMPFLRLYGYLDGLVPRKVVPMLDKLWPHSESYIFAKAAHAPFISHPAEFCHLLVALKQRV
notes: The bioH gene was amplified from E. coli genomic DNA by PCR with flanking restriction sites NdeI and EcoRI; 6xHis (N); made in house; host or cells: E. coli BL21(DE3)/pXK8 (pET28a)
A word on the kcat: it is the maximal rate divided by the concentration of active sites. Consider B1, for which, in data set [4], the Km worked out at 229 ± 26 µM and the kcat is 260 ± 45 s⁻¹.
